Source: paper PMC8979346 (RSC Advances, 2022)

Assays:
hCA XII = hCA XII (Homo sapiens, UniProt O43570); assay: Carbonic anhydrase XII inhibition activity; assay type: biochemical
hCA IX = hCA IX (Homo sapiens, UniProt Q16790); assay: biochemical; settings: for IC50: IC50 (μM) ± SEM CA IX, ± SEM
hCA II = hCA II (Homo sapiens, UniProt P00918); assay: Carbonic anhydrase II inhibition activity; assay type: biochemical

hCA XII, sequence (O43570 25-354): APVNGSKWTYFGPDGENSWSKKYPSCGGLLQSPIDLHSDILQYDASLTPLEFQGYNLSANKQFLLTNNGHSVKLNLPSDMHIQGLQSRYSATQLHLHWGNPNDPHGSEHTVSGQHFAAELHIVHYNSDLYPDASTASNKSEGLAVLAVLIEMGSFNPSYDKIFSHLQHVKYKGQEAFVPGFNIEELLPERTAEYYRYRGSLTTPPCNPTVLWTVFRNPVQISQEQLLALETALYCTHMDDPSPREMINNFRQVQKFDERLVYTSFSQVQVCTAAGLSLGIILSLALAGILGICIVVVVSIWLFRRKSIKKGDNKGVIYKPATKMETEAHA

SMILES | IC50 (hCA XII) [nM] | IC50 (hCA IX; CA IX) [µM] | IC50 (hCA II) [nM] | further results
Cc1ccc(S(=O)(=O)Nc2cc(C)ccc2C)cc1 [Compound 3b, N-(2,5-Dimethylphenyl)-4-methylbenzenesulfonamide] | 1030 ± 230 | 1.65 ± 1.3 | – | –
CCN(CC)c1ccc(NS(=O)(=O)c2ccc(C)cc2)cc1 [Compound 3e, N-(4-(Diethylamino)phenyl)-4-methylbenzenesulfonamide] | 630 ± 140 | – | – | % inhibition CA IX (hCA IX; CA IX, at 100 μM): 31%; inhibition at 100 µM (hCA IX; read-out: % inhibition CA IX, CA IX, at 100 μM): < 31%
Cc1ccc(S(=O)(=O)Nc2ccccc2)cc1 [Compound 3a, 4-Methyl-N-phenylbenzenesulfonamide] | – | 1.2 ± 0.75 | 1300 ± 510 | –
Cc1ccc(S(=O)(=O)NNc2ccccc2)cc1 [Compound 3h, 4-Methyl-N′-phenylbenzenesulfonohydrazide] | 1080 ± 620 | 0.484 ± 1.4 | 520 ± 440 | –
Cc1ccc(S(=O)(=O)Nc2ccc(C)c(C)c2)cc1 [Compound 3j, N-(3,4-Dimethylphenyl)-4-methylbenzenesulfonamide] | 1120 ± 1000 | 0.62 ± 0.2 | 2500 ± 1500 | –
COc1ccc(S(=O)(=O)Nc2ccccc2)cc1 [Compound 3k, 4-Methoxy-N-phenylbenzenesulfonamide] | 1140 ± 370 | – | 1740 ± 540 | –
Cc1ccc(S(=O)(=O)NCc2ccccc2)cc1 [Compound 3f, N-benzyl-4-methylbenzenesulfonamide] | 860 ± 280 | 1.98 ± 0.61 | 1070 ± 820 | –
Cc1ccc(S(=O)(=O)Nc2c(C)cccc2C)cc1 [Compound 3c, N-(2,6-Dimethylphenyl)-4-methylbenzenesulfonamide] | 700 ± 200 | 1.06 ± 0.63 | 1550 ± 800 | –
COc1ccc(S(=O)(=O)NNc2ccccc2)cc1 [Compound 3i, 4-Methoxy-N′-phenylbenzenesulfonohydrazide] | – | – | 2760 ± 1100 | % inhibition CA XII (hCA XII; CA XII, at 100 μM): 27%
Cc1ccc(S(=O)(=O)NC(c2ccccc2)c2ccccc2)cc1 [Compound 3g, N-Benzhydryl-4-methylbenzenesulfonamide] | 1300 ± 780 | 0.78 ± 0.83 | 863 ± 540 | –
COc1ccc(CCNS(=O)(=O)c2ccc(C)cc2)cc1OC [Compound 3l, N-(3,4-Dimethoxyphenethyl)-4-methylbenzenesulfonamide] | 1170 ± 1000 | 0.764 ± 0.54 | – | % inhibition CA II (hCA II; CA II, at 100 μM): 32%; inhibition at 100 µM (hCA II; read-out: % inhibition CA II, CA II, at 100 μM): < 50%
COc1ccc(S(=O)(=O)NC(c2ccccc2)c2ccccc2)cc1 [Compound 3m, N-Benzhydryl-4-methoxybenzenesulfonamide] | 1400 ± 570 | – | 507 ± 400 | –
